Measurements reported in patent US20210128457A1 (priority 2019, published 2021).
Read-outs that look alike come from different tables or passages of the source.

Tests used:
[1] = system: cochlear hair cells; assay: Gentamicin distribution in cochlear hair cells, RWS versus transcanal USM; settings: stood 3 minutes without ultrasound
Text: Because phalloidin binds to the cytoskeletal actin, it is used to mark the location of hair cells. […] Merge column is the overlay of the left two columns, it is more obvious to see the distribution of gentamicin in the cochlea. […] The green dots indicated the uptake of gentamicin in the hair cells.

[2] = type: in vitro ADME
Text: In order to understand the effect of ultrasound transcranial administration (behind the ear) to release the drug through the round window membrane (single-membrane), and the effect of ultrasound transcanal administration to release the drug through the eardrum and the round window membrane (two-membranes), 3D-printed material extrusion was used for designing three drug delivery devices:
M1: single-membrane group (FIGS. 5A to 5C), a dialysis membrane 80 was sandwiched between the donor end 10 (Donor area) and the receiving end 20 (Receptor area) for mimicking the position of the round window membrane.
M1-20°: single-membrane with tilt group, the round window membrane of the guinea pig's ear was not perpendicular to the ear canal, so the ultrasonic probe originally perpendicular to the donor end 10 was tilted at an angle of about 20 degrees (FIG. 5C) to make the experiment more realistic. That is, after the top of the ultrasonic probe was placed at the surface center of saline in the donor end 10, the angle between the long axis direction of the ultrasonic probe and the long axis direction of the device was about 20 degrees.
M1+B: The single-membrane transcranial group (FIG. 5D) differed from the single-membrane group in that the skull 90 was placed on top of the donor end 10; and
M2: two-membranes group (FIGS. 5E to 5F), the dialysis membranes 80 were respectively sandwiched between the donor end 10 and the interval chamber 30 of the device, and between the interval chamber 30 and the receiving end 20, where the donor end 10 simulated the external ear canal, the interval chamber 30 simulated the middle ear cavity, and the receiving end 20 simulated the inner ear.
The above groups simulated the actual guinea pig's ear structure and the volume in each area. The printing material was polyethylene terephthalate (PETG). A suitable molecular weight (Orange scientific, OrDial D-Clean, MW=1000) was chosen for the dialysis membrane 80 to separate the sample from the tested drug. About 400 μL of saline was injected into the receiving end 20 to simulate the actual inner ear lymph fluid volume of the guinea pig. […] The experiment samples were injected to the donor end 10 of the single-membrane group, the single-membrane transcranial group and the single-membrane with tilt group, and were injected to the interval chamber 30 of the two-membranes group, to mimic the volume of the middle ear cavity in the middle ear cavity of the guinea pigs. The single-membrane group and the two-membranes group were subjected to 3 W/cm^2 ultrasonic waves for 3 times (1 minute each time), while the single-membrane transcranial group blocked by the skull 90 was extended to 3 times (3 minutes each time) to ensure inducing the cavitation. […] In each group, saline in the receiving end 20 before the experiment, saline in the donor end 10 or the interval chamber 30 after the experiment, and saline in the receiving end 20 after the experiment were sampled for detecting fluorescence value.

[3] = type: in vivo, guinea pigs; settings: guinea pig
Text: Pigmented guinea pigs with normal sound reflection (Preyer's reflex) were used. The experimental group was divided into the following four groups:
The structure of the ear includes an outer ear 110, a middle ear 120, an inner ear 130, a tympanic membrane 140, and a round window membrane 150. The outer ear 110 includes an external ear canal 111, the middle ear 120 includes auditory ossicles 121 and a middle ear cavity 122, and the inner ear 130 includes a cochlea 131. The ultrasonic device 210 was placed in the external ear canal 111, and the ultrasound waves were generated by an ultrasonic device 210. The ultrasound waves were transmitted to the middle ear cavity 122 and induced the cavitation on the microbubbles 220 located in the middle ear cavity 122.
3 W/cm^2 ultrasound was administered three times (3 minutes each time) at the mark place, and the solution in the middle ear cavity was replaced every time.
After the animal experiment (n=4), the animals were sacrificed and the tympanic bullae were taken out. About 10 μL of perilymph fluid was collected and centrifuged. The supernatant was diluted at a ratio of 1:100 for detecting fluorescence value.
After the animal experiment had finished (n=4), the animals were sacrificed and the tympanic bullae were taken out. About 10 μL of perilymph fluid was collected and centrifuged. The supernatant was diluted at a ratio of 1:100 for detecting fluorescence value.

gentamicin uptake in hair cells (green fluorescence), second turn and third turn [1] | ratio of permeability USM/RWS ([2]; M1+B single-membrane transcranial group) | relative fluorescence units of saline in the receiving end ([2]; M1+B single-membrane transcranial group, RWS) [RFU] | relative fluorescence units of saline in the receiving end ([2]; M1+B single-membrane transcranial group, USM, 3 W/cm^2, 3 times 3 minutes) [RFU] | ratio of permeability USM/RWS ([2]; M1-20° single-membrane with tilt group) | relative fluorescence units of saline in the receiving end ([2]; M1-20° single-membrane with tilt group, RWS) [RFU] | relative fluorescence units of saline in the receiving end ([2]; M1-20° single-membrane with tilt group, USM) [RFU] | ratio of permeability USM/RWS ([2]; M1 single-membrane group) | relative fluorescence units of saline in the receiving end ([2]; M1 single-membrane group, USM, 3 W/cm^2, 3 times 1 minute) [RFU] | relative fluorescence units of saline in the receiving end ([2]; M1 single-membrane group, round window soaking (RWS)) [RFU] | ratio of permeability USM/RWS ([2]; M2 two-membranes group) | relative fluorescence units of saline in the receiving end ([2]; M2 two-membranes group, RWS) [RFU] | relative fluorescence units of saline in the receiving end ([2]; M2 two-membranes group, USM, 3 W/cm^2, 3 times 1 minute) [RFU] | relative fluorescence units of perilymph fluid ([3]; RWS group A, stood 3 minutes without ultrasound) [RFU] | relative fluorescence units of perilymph fluid ([3]; RWS group B, stood 9 minutes without ultrasound) [RFU] | ratio of permeability transcanal USM/RWS group A [3] | ratio of permeability transcranial USM/RWS group B [3] | relative fluorescence units of perilymph fluid ([3]; transcanal group (USM), 3 W/cm^2, 3 times 1 minute) [RFU] | relative fluorescence units of perilymph fluid ([3]; transcranial group (USM), 3 W/cm^2, 3 times 3 minutes) [RFU] | Substance
did not found the dot-like fluorescence | – | – | – | – | – | – | – | – | – | – | – | – | – | – | – | – | – | – | Gentamicin
– | about 3.74 folds | 631.5±21.12 | 2362±64.91 | about 5.67 folds | 309.7±20.54 | 1756.3±76.29 | about 6.91 folds | 2726.3±79.97 | 394.5±5.3 | about 4.77 folds | 285.7±7.45 | 1363.7±56.66 | 1633.33±72.63 | 6700±69.74 | about 2.83 folds | about 1.5 folds | 4206.83±202.93 | 10113±338.8 | biotin-FITC
